Assay results from PubChem BioAssay (NCI).
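GI50 marks 50% less growth. TGI: concentration producing complete growth inhibition.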

Experiments:
Assay in all cases: NCI-60 cell line screen, 384-well format
786-0 renal = tested on: 786-0 renal
A498 renal = tested on: A498 renal
A549 NSCLC = tested on: A549 NSCLC
ACHN renal = tested on: ACHN renal
BT-549 breast = tested on: BT-549 breast
CAKI-1 renal = tested on: CAKI-1 renal
COLO 205 colon = tested on: COLO 205 colon
DU-145 prostate = tested on: DU-145 prostate
EKVX NSCLC = tested on: EKVX NSCLC
HCC-2998 colon = tested on: HCC-2998 colon
HCT-116 colon = tested on: HCT-116 colon
HCT-15 colon = tested on: HCT-15 colon
HL-60(TB) leukemia = tested on: HL-60(TB) leukemia
HOP-62 NSCLC = tested on: HOP-62 NSCLC
HOP-92 NSCLC = tested on: HOP-92 NSCLC
HS 578T breast = tested on: HS 578T breast
HT29 colon = tested on: HT29 colon
IGROV1 ovarian = tested on: IGROV1 ovarian
KM12 colon = tested on: KM12 colon
LOX IMVI melanoma = tested on: LOX IMVI melanoma
M14 melanoma = tested on: M14 melanoma
MALME-3M melanoma = tested on: MALME-3M melanoma
MCF7 breast = tested on: MCF7 breast
MDA-MB-231 breast = tested on: MDA-MB-231 breast
MDA-MB-435 melanoma = tested on: MDA-MB-435 melanoma
MDA-MB-468 breast = tested on: MDA-MB-468 breast
MOLT-4 leukemia = tested on: MOLT-4 leukemia
NCI-H226 lung = tested on: NCI-H226 lung
NCI-H23 lung = tested on: NCI-H23 lung
NCI-H322M lung = tested on: NCI-H322M lung
NCI-H460 NSCLC = tested on: NCI-H460 NSCLC
NCI-H522 lung = tested on: NCI-H522 lung
NCI/ADR-RES ovarian = tested on: NCI/ADR-RES ovarian
OVCAR-3 ovarian = tested on: OVCAR-3 ovarian
OVCAR-4 ovarian = tested on: OVCAR-4 ovarian
OVCAR-5 ovarian = tested on: OVCAR-5 ovarian
OVCAR-8 ovarian = tested on: OVCAR-8 ovarian
PC-3 prostate = tested on: PC-3 prostate
RPMI-8226 leukemia = tested on: RPMI-8226 leukemia
SF-268 CNS = tested on: SF-268 CNS
SF-295 CNS = tested on: SF-295 CNS
SF-539 CNS = tested on: SF-539 CNS
SK-MEL-28 melanoma = tested on: SK-MEL-28 melanoma
SK-MEL-5 melanoma = tested on: SK-MEL-5 melanoma
SK-OV-3 ovarian = tested on: SK-OV-3 ovarian
SN12C renal = tested on: SN12C renal
SNB-19 CNS = tested on: SNB-19 CNS
SR leukemia = tested on: SR leukemia
SW-620 colon = tested on: SW-620 colon
T-47D breast = tested on: T-47D breast
TK-10 renal = tested on: TK-10 renal
U251 glioblastoma = tested on: U251 glioblastoma
UACC-257 melanoma = tested on: UACC-257 melanoma
UACC-62 melanoma = tested on: UACC-62 melanoma
UO-31 renal = tested on: UO-31 renal

## Cc1nc(Nc2ncc(C(=O)Nc3c(C)cccc3Cl)s2)cc(N2CCN(CCO)CC2)n1
786-0 renal
  GI50: 35.7 nM
  TGI: 2500 nM
A498 renal
  GI50: 251 nM
  TGI: 2750 nM
A549 NSCLC
  GI50: 27.5 nM
  TGI: 12600 nM
ACHN renal
  GI50: 17.2 nM
  TGI: 234 nM
BT-549 breast
  GI50: 32.7 nM
  TGI: 1260 nM
CAKI-1 renal
  GI50: 27.7 nM
  TGI: 225 nM
COLO 205 colon
  GI50: 3800 nM
  TGI: 10700 nM
DU-145 prostate
  GI50: 227 nM
  TGI: 4850 nM
EKVX NSCLC
  GI50: 724 nM
  TGI: 15600 nM
HCC-2998 colon
  GI50: 5080 nM
  TGI: 16800 nM
HCT-116 colon
  GI50: 4830 nM
  TGI: 17400 nM
HCT-15 colon
  GI50: 1030 nM
  TGI: 13700 nM
HL-60(TB) leukemia
  GI50: 7230 nM
  TGI: 18100 nM
HOP-62 NSCLC
  GI50: 64.8 nM
  TGI: 12200 nM
HOP-92 NSCLC
  GI50: 37.2 nM
  TGI: 2040 nM
HS 578T breast
  GI50: 12.9 nM
  TGI: 49.4 nM
HT29 colon
  GI50: 2020 nM
  TGI: 13300 nM
IGROV1 ovarian
  TGI: 37.5 nM
KM12 colon
  GI50: 7300 nM
  TGI: 19800 nM
LOX IMVI melanoma
  GI50: 27.7 nM
  TGI: 1250 nM
M14 melanoma
  GI50: 2860 nM
  TGI: 8230 nM
MALME-3M melanoma
  GI50: 3190 nM
  TGI: 8820 nM
MCF7 breast
  GI50: 10000 nM
  TGI: 21700 nM
MDA-MB-231 breast
  GI50: 25.1 nM
  TGI: 1040 nM
MDA-MB-435 melanoma
  GI50: 9250 nM
  TGI: 20800 nM
MDA-MB-468 breast
  GI50: 695 nM
  TGI: 4510 nM
MOLT-4 leukemia
  GI50: 1000 nM
  TGI: 3000 nM
NCI-H226 lung
  GI50: 24.7 nM
  TGI: 2640 nM
NCI-H23 lung
  GI50: 2590 nM
  TGI: 10700 nM
NCI-H322M lung
  GI50: 38.1 nM
  TGI: 973 nM
NCI-H460 NSCLC
  GI50: 9520 nM
  TGI: 21400 nM
NCI-H522 lung
  GI50: 13.5 nM
  TGI: 98 nM
NCI/ADR-RES ovarian
  GI50: 1870 nM
  TGI: 14700 nM
OVCAR-3 ovarian
  GI50: 15.1 nM
  TGI: 419 nM
OVCAR-4 ovarian
  GI50: 58.8 nM
  TGI: 850 nM
OVCAR-5 ovarian
  GI50: 41 nM
  TGI: 6270 nM
OVCAR-8 ovarian
  GI50: 64.3 nM
  TGI: 2970 nM
PC-3 prostate
  GI50: 3120 nM
  TGI: 17500 nM
RPMI-8226 leukemia
  GI50: 2110 nM
  TGI: 5500 nM
SF-268 CNS
  GI50: 30.3 nM
  TGI: 128 nM
SF-295 CNS
  GI50: 2590 nM
  TGI: 18900 nM
SF-539 CNS
  GI50: 48.2 nM
  TGI: 1640 nM
SK-MEL-28 melanoma
  GI50: 5620 nM
  TGI: 18700 nM
SK-MEL-5 melanoma
  GI50: 4260 nM
  TGI: 15100 nM
SK-OV-3 ovarian
  GI50: 49.6 nM
  TGI: 3140 nM
SN12C renal
  GI50: 13.9 nM
  TGI: 3390 nM
SNB-19 CNS
  GI50: 8690 nM
  TGI: 21700 nM
SR leukemia
  GI50: 5440 nM
  TGI: 8780 nM
SW-620 colon
  GI50: 15100 nM
  TGI: 28600 nM
T-47D breast
  GI50: 176 nM
  TGI: 15100 nM
TK-10 renal
  GI50: 25.9 nM
  TGI: 164 nM
U251 glioblastoma
  GI50: 4200 nM
  TGI: 17800 nM
UACC-257 melanoma
  GI50: 5530 nM
  TGI: 18200 nM
UACC-62 melanoma
  GI50: 2050 nM
  TGI: 10100 nM
UO-31 renal
  GI50: 57 nM
  TGI: 840 nM
